Target: T1, Sterol O-acyltransferase 1 (Rattus norvegicus, UniProt O70536)
T1 sequence (O70536 whole entry): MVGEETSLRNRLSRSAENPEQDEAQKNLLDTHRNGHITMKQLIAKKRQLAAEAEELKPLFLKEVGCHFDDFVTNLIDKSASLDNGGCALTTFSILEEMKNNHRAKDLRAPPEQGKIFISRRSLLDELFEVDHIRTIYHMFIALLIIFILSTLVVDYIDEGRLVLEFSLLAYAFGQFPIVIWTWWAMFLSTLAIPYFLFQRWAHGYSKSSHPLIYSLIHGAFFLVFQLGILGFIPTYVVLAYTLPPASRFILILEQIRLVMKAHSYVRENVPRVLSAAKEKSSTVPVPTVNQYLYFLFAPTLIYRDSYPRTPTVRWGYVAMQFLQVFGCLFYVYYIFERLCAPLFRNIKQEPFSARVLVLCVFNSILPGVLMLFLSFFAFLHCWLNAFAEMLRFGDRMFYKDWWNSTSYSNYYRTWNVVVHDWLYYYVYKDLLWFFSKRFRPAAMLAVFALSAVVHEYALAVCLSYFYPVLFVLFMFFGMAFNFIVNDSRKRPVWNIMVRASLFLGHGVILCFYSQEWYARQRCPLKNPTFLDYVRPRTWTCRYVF
Assay: Inhibition of rat liver microsomal ACAT

Structure (SMILES) | IC50 [µM]
C[C@H]1[C@H](C)CC[C@]2(C(=O)O)CC[C@]3(COC(=O)/C=C/c4ccc(O)cc4)C(=CC[C@@H]4[C@@]5(C)CC[C@H](O)C(C)(C)[C@@H]5CC[C@]43C)[C@H]12 | 73
C[C@H]1[C@H](C)CC[C@]2(C(=O)O)CC[C@]3(COC(=O)/C=C\c4ccc(O)cc4)C(=CC[C@@H]4[C@@]5(C)CC[C@H](O)[C@@](C)(CO)[C@@H]5CC[C@]43C)[C@H]12 | 194
C[C@H]1[C@H](C)CC[C@]2(C(=O)O)CC[C@]3(C)C(=CC[C@@H]4[C@@]5(C)CC[C@H](O)[C@@](C)(CO)[C@@H]5CC[C@]43C)[C@H]12 | 64
C=C1[C@@H](O)[C@H](O)C[C@]2(C)[C@H]3C=C[C@]45OC(=O)[C@@]6(CC[C@@H](C)[C@H](C)[C@H]64)CC[C@@]5(C)[C@]3(C)CC[C@@H]12 [ILEKUDINOL A] | 154
C=C1[C@@H](O)[C@H](O)C[C@]2(C)[C@H]3CC=C4[C@@H]5[C@@H](C)[C@H](C)CC[C@]5(C(=O)O)CC[C@@]4(C)[C@]3(C)CC[C@@H]12 [ILEKUDINOL B] | 44
C=C(C)[C@@H]1CC[C@]2(CO)CC[C@]3(C)[C@H](CC[C@@H]4[C@@]5(C)CC[C@H](O)[C@](C)(CO)[C@@H]5CC[C@]43C)[C@@H]12 [ILEKUDINOL C] | 328
C=C1[C@@H](O)[C@H](O)C[C@]2(C)[C@H]3[C@@H]4O[C@@H]4[C@]45OC(=O)[C@@]6(CC[C@@H](C)[C@H](C)[C@H]64)CC[C@@]5(C)[C@]3(C)CC[C@@H]12 [ULMOIDOL] | 468

From ChEMBL document CHEMBL1144078, “Activity-guided isolation of triterpenoid acyl CoA cholesteryl acyl transferase (ACAT) inhibitors from Ilex kudincha” (J Nat Prod, 1999)
